Results taken from paper PMC3710259, “Experimental detection of proteolytic activity in a signal peptide peptidase of Arabidopsis thaliana” (BMC Biochemistry, 2013).

Experiments:
native human SPP (HsSPP) = target: T1, native human SPP (HsSPP) (Homo sapiens, UniProt Q8TCT9); experiment: gel immunoblot cleavage assay of myc-Prl-PP-FLAG with DDM-solubilised membranes; format: biochemical; details: 1 μM myc-Prl-PP-FLAG substrate, 0.25% DDM, 37°C; 10 μM inhibitor
T1 construct: gene HM13; endogenous, untagged, in DDM-solubilised membrane fraction of HEK293T cells
T1 sequence (Q8TCT9 1-377): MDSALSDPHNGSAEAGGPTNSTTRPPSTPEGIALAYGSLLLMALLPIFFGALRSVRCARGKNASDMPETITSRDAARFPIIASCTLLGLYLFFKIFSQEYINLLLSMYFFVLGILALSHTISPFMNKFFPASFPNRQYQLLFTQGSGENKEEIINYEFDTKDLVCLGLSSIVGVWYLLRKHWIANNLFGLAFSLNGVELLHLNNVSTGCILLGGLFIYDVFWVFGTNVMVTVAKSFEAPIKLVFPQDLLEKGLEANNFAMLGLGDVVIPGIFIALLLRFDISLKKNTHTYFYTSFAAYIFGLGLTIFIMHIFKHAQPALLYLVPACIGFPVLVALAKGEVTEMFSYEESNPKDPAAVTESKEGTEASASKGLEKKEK

AtSPP-GFP = target: T2, AtSPP-GFP (Arabidopsis thaliana, UniProt O81062); experiment: as above; format: biochemical; details: 1 μM myc-Prl-PP-FLAG substrate, 0.25% DDM, 37°C, 15 h; 50 μM inhibitor
T2 construct: gene SPP; full length with C-terminal yEGFP-octa-His tag kept, expressed in Saccharomyces cerevisiae BY2777; DDM-solubilised yeast membranes; estimated 65 kDa
T2 sequence (O81062 1-344): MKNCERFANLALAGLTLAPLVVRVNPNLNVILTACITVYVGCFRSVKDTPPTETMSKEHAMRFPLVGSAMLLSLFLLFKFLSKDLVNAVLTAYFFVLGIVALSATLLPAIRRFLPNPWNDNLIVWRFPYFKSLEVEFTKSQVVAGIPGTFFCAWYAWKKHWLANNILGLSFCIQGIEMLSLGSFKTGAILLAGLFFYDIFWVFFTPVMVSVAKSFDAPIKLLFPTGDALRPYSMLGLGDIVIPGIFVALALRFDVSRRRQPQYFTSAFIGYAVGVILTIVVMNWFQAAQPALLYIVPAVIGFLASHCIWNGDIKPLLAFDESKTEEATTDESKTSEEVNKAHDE

CC(C)C[C@H](NC(=O)OCc1ccccc1)C(=O)N[C@@H](CC(C)C)C(=O)NCC(=O)CNC(=O)[C@H](CC(C)C)NC(=O)[C@H](CC(C)C)NC(=O)OCc1ccccc1 [(Z-LL)2-ketone, 1,3-di-(N-carboxybenzoyl-L-leucyl-L-leucyl) amino acetone]
inhibition at 10 μM (native human SPP (HsSPP)): the SPP was inhibited by the (Z-LL)2-ketone | inhibition at 50 μM (AtSPP-GFP): rate of proteolytic activity of AtSPP-GFP was weak, the activity was inhibited by the (Z-LL)2-ketone
